Experimental data as given in ChEMBL document CHEMBL2203126, “Diazine indole acetic acids as potent, selective, and orally bioavailable antagonists of chemoattractant receptor homologous molecule expressed on Th2 cells (CRTH2) for the treatment of allergic inflammatory diseases” (J Med Chem, 2012).
≈ marks a conversion by molar mass, not a printed value.

Legend:
[1] = biological target: T1, Prostaglandin D2 receptor 2 (Homo sapiens, UniProt Q9Y5Y4); assay: biochemical
T1 sequence (Q9Y5Y4 whole entry): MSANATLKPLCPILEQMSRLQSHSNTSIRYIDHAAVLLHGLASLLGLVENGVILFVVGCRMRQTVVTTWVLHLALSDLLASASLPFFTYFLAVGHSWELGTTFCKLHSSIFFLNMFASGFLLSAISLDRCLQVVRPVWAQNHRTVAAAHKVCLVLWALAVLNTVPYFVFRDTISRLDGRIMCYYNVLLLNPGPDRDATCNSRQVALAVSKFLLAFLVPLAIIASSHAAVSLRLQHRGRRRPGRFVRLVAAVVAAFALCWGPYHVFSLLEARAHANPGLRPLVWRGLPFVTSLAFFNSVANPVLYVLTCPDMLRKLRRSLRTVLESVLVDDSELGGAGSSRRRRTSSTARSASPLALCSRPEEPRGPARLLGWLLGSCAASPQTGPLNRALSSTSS
Description: (§1) Displacement of [3H]PGD2 from recombinant human CRTH2 receptor expressed in CHO-K1 cells after 30 min by FRET method

in vitro [2] = conditions: human, plasma
Description: Plasma protein binding in human

[3] = Dissociation constant, pKa of the compound; format: physicochemical
Eosinophil = assay: cells; conditions: Homo sapiens, Blood, 10 min
Description: Inhibition of eosinophil shape change in human whole blood after 10 mins by flow cytometric assay

in vitro [4] = conditions: human, Caco-2, pH 6.2
Description: Apparent permeability in human Caco2 cells at pH 6.2/7.4

[5] = Half life in mouse liver microsomes; format: ADME, Microsome
[6] = Effective permeability across human Caco2 cells; format: ADME, cell-based; conditions: Caco-2, read-out: Peff
[7] = Oral bioavailability in mouse; format: ADME, organism-based; conditions: in vivo
[8] = Clearance in mouse; format: ADME, organism-based; conditions: in vivo
[9] = Oral bioavailability in mouse at 10 mg/kg; format: ADME, organism-based; conditions: in vivo
[10] = Cmax in mouse at 10 mg/kg, po; format: ADME, organism-based; design: dose 10 mg/kg, route oral; conditions: in vivo
physchem = conditions: buffer, pH 6.6
Description: Aqueous solubility of the compound at pH 6.6

[11] = Volume of distribution at steady state in mouse at 2 mg/kg, iv; format: ADME, organism-based; design: dose 2 mg/kg, route intravenous; conditions: in vivo, read-out: Vdss
[12] = Clearance in mouse plasma at 2 mg/kg, iv; format: ADME, organism-based; design: dose 2 mg/kg, route intravenous
[13] = Half life in mouse at 2 mg/kg, iv; format: ADME, organism-based; design: dose 2 mg/kg, route intravenous; conditions: in vivo
Mus musculus = species: Mus musculus; assay: animal or person; conditions: Ear, po, read-out: INH
in vivo [14] = conditions: rat, iv, 2 mg/kg
Description: Half life in rat at 2 mg/kg, iv

in vivo [15] = conditions: rat, po, 10 mg/kg
in vivo [16] = conditions: rat, iv, 2 mg/kg; remark: listed apart in the source
Description: Volume of distribution at steady state in rat at 2 mg/kg, iv

in vivo [17] = conditions: rat, po, 10 mg/kg; remark: listed apart in the source
in vivo [18] = conditions: rat, plasma, iv, 2 mg/kg
Description: Clearance in rat plasma at 2 mg/kg, iv

Liver microsomes = assay: Metabolic stability in human liver microsomes; format: ADME, Microsome
[19] = biological target: T1, Prostaglandin D2 receptor 2; conditions: cho-k1
Description: as §1

IC50 [1] | pKa [3] | Compound | also measured
> 1000 nM |  | Cc1c(-c2nn(Cc3ccccc3)c(=O)c3ccccc23)c2ccccc2n1CC(=O)N1CCCC1 | 
 |  | Cc1c(Cc2ccc(=O)n(Cc3ccc(F)cc3F)n2)c2ccccc2n1CC(=O)O | fraction unbound (in vitro [2]): < 0.02
16 nM | 4.03 | Cc1c(-c2ccc(=O)n(Cc3ccccc3)n2)c2cc(Br)ccc2n1CC(=O)O | 
> 1000 nM |  | Cc1c(-c2nn(Cc3ccccc3)c(=O)c3ccccc23)c2ccccc2n1CCO | 
 |  | Cc1c(Cc2ccc(=O)n(Cc3ccc(C(O)(C(F)(F)F)C(F)(F)F)cc3)n2)c2cc(F)ccc2n1CC(=O)O | IC50 (Eosinophil): 57 nM; fraction unbound (in vitro [2]): < 0.02
23 nM | 4.02 | Cc1c(-c2ccc(=O)n(Cc3ccccc3)n2)c2cc(F)ccc2n1CC(=O)O | Papp (in vitro [4]): 0.5 ×10⁻⁶ cm/s
 | 3.83 | Cc1c(-c2ccc(=O)n(Cc3ccccc3)n2)c2cc(F)cc(S(C)(=O)=O)c2n1CC(=O)O | 
34 nM | 4.16 | Cc1ccc2c(c1)c(-c1ccc(=O)n(Cc3ccccc3)n1)c(C)n2CC(=O)O | 
934 nM | 3.83 | Cc1c(-c2ccc(=O)n(Cc3ccccc3)n2)c2cc(S(C)(=O)=O)cc(F)c2n1CC(=O)O | 
> 1000 nM |  | Cc1c(-c2nn(Cc3ccccc3)c(=O)c3ccccc23)c2ccccc2n1CC(=O)N(C)C | 
11 nM |  | Cc1c(-c2nn(Cc3ccccc3)c(=O)c3ccccc23)c2cc(F)ccc2n1CC(=O)O | 
 |  | Cc1c(Cc2ccc(=O)n(Cc3ccncc3F)n2)c2cc(F)ccc2n1CC(=O)O | fraction unbound (in vitro [2]): < 0.02
> 1000 nM |  | Cc1c(-c2nn(Cc3ccccc3)c(=O)c3ccccc23)c2ccccc2n1CCC(=O)O | 
2 nM |  | Cc1c(-c2nn(CCOc3ccc(Cl)cc3)c(=O)c3ccccc23)c2cc(Cl)ccc2n1CC(=O)O | half-life [5]: 0.183 h; Papp [6]: 0.2 ×10⁻⁶ cm/s; bioavailability [7]: < 1%; clearance [8]: > 90 mL/min/kg
28 nM | 4.03 | Cc1c(-c2ccc(=O)n(Cc3ccccc3)n2)c2cc(Cl)ccc2n1CC(=O)O | 
> 1000 nM |  | Cc1c(-c2nn(Cc3ccccc3)c(=O)c3ccccc23)c2ccccc2n1CC(N)=O | 
 |  | Cc1c(Cc2ccc(=O)n(Cc3ccc(F)cc3F)n2)c2cc(F)cc(F)c2n1CC(=O)O | IC50 (Eosinophil): 180 nM; fraction unbound (in vitro [2]): < 0.02
15 nM |  | Cc1c(Cc2ccc(=O)n(Cc3ccccc3)n2)c2cc(Cl)ccc2n1CC(=O)O | IC50 (Eosinophil): 15 nM; fraction unbound (in vitro [2]): < 0.02
109 nM |  | Cc1c(C2=NN(Cc3ccccc3)C(=O)C3CCCCC23)c2cc(F)ccc2n1CC(=O)O (centres undefined) | 
135 nM | 4 | Cc1c(-c2ccc(=O)n(Cc3ccccc3)n2)c2cc(S(C)(=O)=O)ccc2n1CC(=O)O | 
4 nM |  | Cc1c(CC2=NN(Cc3ccc(F)cc3F)C(=O)CC2)c2cc(F)ccc2n1CC(=O)O | IC50 (Eosinophil): 8 nM; fraction unbound (in vitro [2]): < 0.02; bioavailability [9]: 41%; Cmax [10]: 1890 ng/mL; solubility (physchem): 954 µg/mL (≈ 2150 µM); Vd [11]: 1.12 L/kg; clearance [12]: 9 mL/min/kg; half-life [13]: 4 h

IC50 [1] | pKa [3] | Compound | also measured
 | 3.98 | Cc1c(-c2ccc(=O)n(Cc3ccccc3)n2)c2cccc(Br)c2n1CC(=O)O | 
5 nM |  | Cc1c(Cc2ccc(=O)n(Cc3ccc(C(C)(C)O)cc3)n2)c2cc(F)ccc2n1CC(=O)O | IC50 (Eosinophil): 13 nM; fraction unbound (in vitro [2]): < 0.02
76 nM | 3.85 | Cc1c(-c2ccc(=O)n(Cc3ccccc3)n2)c2cc(F)cc(F)c2n1CC(=O)O | 
> 1000 nM |  | Cc1c(-c2nn(Cc3ccccc3)c(=O)c3ccccc23)c2ccccc2n1CC(=O)NS(C)(=O)=O | 
0.8 nM |  | Cc1c(Cc2ccc(=O)n(Cc3cc(F)c(F)cc3F)n2)c2cc(F)ccc2n1CC(=O)O | IC50 (Eosinophil): 10 nM; fraction unbound (in vitro [2]): < 0.02
29 nM |  | Cc1c(Cc2nn(Cc3ccccc3)c(=O)c3ccccc23)c2cc(Cl)ccc2n1CC(=O)O | 
245 nM | 3.86 | Cc1c(-c2ccc(=O)n(Cc3ccccc3)n2)c2cc(F)cc(Cl)c2n1CC(=O)O | 
16 nM |  | Cc1c(CC2=NN(Cc3ccccc3)C(=O)CC2)c2cc(F)ccc2n1CC(=O)O | IC50 (Eosinophil): 4 nM; fraction unbound (in vitro [2]): < 0.02; inhibition in vivo at 3 mg/kg (Mus musculus): 34%; half-life (in vivo [14]): 4.3 h; bioavailability (in vivo [15]): 28%; Vd (in vivo [16]): 1.7 L/kg; Cmax (in vivo [17]): 484 ng/mL; clearance (in vivo [18]): 13 mL/min/kg
16 nM |  | Cc1c(-c2nn(Cc3ccccc3)c(=O)c3ccccc23)c2ccccc2n1CC(=O)O | 
10 nM |  | Cc1c(-c2ccc(=O)n(Cc3ccc(F)cc3F)n2)c2cc(F)ccc2n1CC(=O)O | Papp (in vitro [4]): 2.1 ×10⁻⁶ cm/s
134 nM | 4.15 | Cc1c(-c2ccc(=O)n(Cc3ccccc3)n2)c2ccccc2n1CC(=O)O | 
9 nM |  | Cc1c(Cc2ccc(=O)n(Cc3ccccc3)n2)c2cc(F)ccc2n1CC(=O)O | Papp (in vitro [4]): 4.3 ×10⁻⁶ cm/s
11 nM |  | Cc1c(-c2nn(Cc3ccccc3)c(=O)c3ccccc23)c2cc(Cl)ccc2n1CC(=O)O | 
1690 nM | 3.88 | Cc1c(-c2ccc(=O)n(Cc3ccccc3)n2)c2cc(Cl)cc(Cl)c2n1CC(=O)O | 
> 1000 nM |  | Cc1c(-c2nn(Cc3ccccc3)c(=O)c3ccccc23)c2ccccc2n1C(C)C(=O)O (centres undefined) | 
104 nM | 4.07 | COc1ccc2c(c1)c(-c1ccc(=O)n(Cc3ccccc3)n1)c(C)n2CC(=O)O | 
12 nM |  | Cc1c(Cc2ccc(=O)n(Cc3ccncc3)n2)c2cc(F)ccc2n1CC(=O)O | IC50 (Eosinophil): 22 nM; fraction unbound (in vitro [2]): < 0.02
 |  | Cc1c(Cc2ccc(=O)n(Cc3ccccc3)n2)c2ccccc2n1CC(=O)O | IC50 (Eosinophil): 155 nM; fraction unbound (in vitro [2]): < 0.02
90 nM | 3.86 | Cc1c(-c2ccc(=O)n(Cc3ccccc3)n2)c2cc(Cl)cc(F)c2n1CC(=O)O | 
 |  | Cc1c(-c2ccc(=O)n(Cc3ccc(F)cc3)n2)c2cc(F)ccc2n1CC(=O)O | half-life [5]: > 0.5 h; Papp [6]: 0.3 ×10⁻⁶ cm/s; bioavailability [7]: 11%; Stability (Liver microsomes): Stable; clearance [8]: 6.9 mL/min/kg; IC50 [19]: 20 nM
 |  | Cc1c(Cc2ccc(=O)n(Cc3ccc(C(F)(F)F)cc3)n2)c2cc(F)ccc2n1CC(=O)O | IC50 (Eosinophil): 55 nM; fraction unbound (in vitro [2]): < 0.02
